Measurements reported in US20220378773A1, “METHODS FOR TREATING LEUKEMIA AND USE OF A LEUKEMIC STEM CELL SIGNATURE TO PREDICT CLINICAL SENSITIVITY TO THERAPIES” (CELGENE CORPORATION, priority 2019, published 2022).
Values joined by “and” are separate entries in the source; they are usually repeats but may differ in a detail not shown here. Equal values may be shown once.

Experiments:
[1] = tested on: primary acute myeloid leukemia blasts; experiment: In vitro apoptosis (Annexin V) and cell count of primary AML blasts; assay type: cell-based, human
Experimental: Annexin V-PE apoptosis detection kit (BD Pharmingen, BD Bioscience, USA) was used to assess apoptosis.
Cell Culture: Materials used for in vitro assays of AML cells included X-VIVO 10 medium supplemented with 15% BIT, and growth factors including 100 ng/mL of stem cell factor, 20 ng/mL of IL-6, 20 ng/mL of G-CSF, 20 ng/mL of IL-3, 100 ng/mL of Flt 3 ligand (each provided by Amgen, USA), 20 ng/mL of GM-CSF (R&D Systems, USA), and 50 ng/mL of thrombopoietin (Kirin Brewery, Japan).
Assay Procedure: After 4 and 24 hours of in vitro culture with DMSO or Compound D, cells were harvested for GSPT1 expression and apoptosis. Levels of GSPT1 were analyzed by flow cytometry using median fluorescence intensity (MFI) and normalized against DMSO controls. Apoptosis was also analyzed by flow cytometry and measured as percentage of cells which were positive for cleaved caspase 3/7.
Viably frozen primary leukemia cells were thawed and plated in suspension culture in the Iscove's Modified Dulbecco's Medium plus 15% BIT Serum Substitute (Stem Cell Technology, Canada), supplemented with multiple human growth factors. Compound D was added to the culture at indicated concentrations.
For GSPT1 expression, intracellular flow cytometry (FACS) was performed at 24 hours in culture by staining cells with GSPT1 conjugated with Alexa Fluor 647. For apoptosis, cells were harvested at 24 hours in culture and stained with Annexin V-PE and 7-aminoactinomycin D (7AAD) (BD Biosciences, USA).

[2] = tested on: colony forming leukemia progenitors; experiment: Acute myeloid leukemia colony forming unit (AML-CFU) assay; assay type: cell-based, human
Experimental: For the AML-colony forming unit (CFU) assay, 0.9% methylcellulose semi-solid culture was used, containing 15% fetal calf serum (FCS), 15% pretested human plasma, 50 μM β mercaptoethanol, and cytokines at concentrations of 100 ng/mL stem cell factor, 100 ng/mL Flt-3 ligand, 20 ng/mL IL-6, 20 ng/mL GM-CSF, 20 ng/mL IL-3, and 3 U/mL of erythropoietin (Amgen, USA).
Cell Culture: Acute myeloid leukemia cells were plated in 0.9% methylcellulose containing 15% FCS, 15% pretested human plasma, 50 μM β-mercaptoethanol, and cytokines at concentrations of 100 ng/mL stem cell factor, 100 ng/mL Flt-3 ligand, 20 ng/mL IL-6, 20 ng/mL GM-CSF, 20 ng/mL IL-3 and 3 U/mL of erythropoietin (Amgen, USA). Acute myeloid leukemia cells were cultured with DMSO or Compound D (prepared as described below) during suspension and CFU assays.
Assay Procedure: After the AML cultures were incubated with DMSO or Compound D for 12 to 14 days at 37° C., plates were assigned scores for the presence of AML-CFU (CFU defined as >50 cells).
Colony assays were performed in semisolid culture supplemented with growth factors, in the presence of Compound D, or DMSO for control. Colonies were counted at Day 14.

primary AML graft = experiment: Pilot in vivo dose study on primary AML graft, 2 weeks dosing; parameters: species or system NOD/SCID mice
Experimental: Intrafemoral Transplantation: One day prior to transplantation, NOD/SCID mice were preconditioned by sublethally irradiating (275 cGy) followed by injection with anti-CD122 antibody (200 μg/mouse) to deplete residual host natural killer (NK) cells. On the day of transplantation, viably frozen AML bulk cells (see Section 6.2.1.2) were thawed, counted, and transplanted intrafemorally into the preconditioned mice at a dose of 5×10^6 cells/mouse in a total volume of 30 μL phosphate buffered saline.
Cells harvested from injected and non-injected bone marrow were stained with mouse anti human antibodies as indicated in Section 6.2.1.3. After staining, washed cells were run on an LSRII flow cytometer (BD, USA) with 10,000 to 20,000 events collected for each sample. Collected data were analyzed by FlowJo software (TreeStar, USA) to assess AML engraftment levels in different tissues as determined by the percentage of human CD45+CD33+ cells.
A pilot study was first conducted to determine the potential dosage that can be used to target primary AML graft in NOD/SCID mice. Two AML patient samples (AML 110500 and AML 90191) were tested at 1.25 or 2.5 mg/kg Compound D once daily (QD) or twice daily (BID) intraperitoneally for a total of 4 different dose/schedule groups (FIG. 4). Following pretreatment with sublethal irradiation and anti-CD122 antibody, NOD/SCID mice were intrafemorally transplanted with AML cells that were previously collected from patients and viably frozen. Mice were dosed with Compound D for 2 weeks post transplantation starting on Day 21. […] Percentage of cells positive with myeloid cell marker CD15 were also elevated in both RF and BM of 2.5 mg/kg BID Compound D-dosed mice (FIG. 4, bottom left). […] Based on this pilot study, Compound D was dosed at 2.5 mg/kg BID for the rest of the in vivo experiments.

[3] = Tolerability and body weight of AML xenograft mice; assay type: in vivo, NOD/SCID mice
Experimental: Treatment and Assay Procedure: At Day 21 post AML transplantation, mice were randomly grouped and dosed with either Compound D at 2.5 mg/kg or vehicle (5% N-methyl-2-pyrrolidone [NMP]/45% polyethylene glycol [PEG] 400/50% saline), intraperitoneally twice daily in a dose volume of 50 μL for 4 weeks. All animals were euthanized at scheduled termination (1 day after the last treatment) and bone marrow was collected from the right femur (injected bone marrow) and the left femur and left and right tibia (non-injected bone marrow). Cells isolated from injected or non-injected bone marrow were analyzed by flow cytometry to assess AML engraftment, and were viably frozen for future secondary engraftment analysis.
Based on the pilot data (FIG. 4) in which one of the 2 samples responded to Compound D dosing at 2.5 mg/kg BID for 2 weeks, the duration of dosing was extended to 4 weeks to determine if the mice could tolerate longer Compound D dosing. Mice transplanted with 3 different AML samples were closely monitored for clinical conditions during treatment.

With `O=C1CCC(N2Cc3cc(CNC(=O)C(F)(F)c4ccc(Cl)cc4)ccc3C2=O)C(=O)N1` (stereo not shown) [Compound D, 2-(4-chlorophenyl)-N-((2-(2,6-dioxopiperidin-3-yl)-1-oxoisoindolin-5-yl)methyl)-2,2-difluoroacetamide] as the compound, how does the apoptosis ([1]; 4 hours) read?
Its apoptosis is “not observed”.

What about the “apoptosis, high vs low LSC17 score samples” value ([1]; 24 hours) of the same compound?
The value was “induced apoptosis at higher levels in samples with high LSC17 scores”.

What about the “induction of apoptosis, number of samples” value ([1]; 24 hours, concentration-dependent) of the same compound?
Its value is “observed in 3 of the 10 samples tested”.

What about the live cells ([1]; Section 6.3 samples) of the same compound?
The live cells was “reduction of live cells”.

What about the apoptosis ([1]; Section 6.3 samples, 24 hours) of the same compound?
Its apoptosis is “Increased apoptosis”.

And the cell numbers ([1]; with increased concentration, 24 hours)?
The cell numbers was “reduced cell numbers for most samples”.

And the “colony formation, high vs low LSC17 score samples” value ([2]; 3 high and 3 low LSC17 samples)?
Its value is “reduced colony formation of the samples with high LSC17 scores more than the samples with low LSC17 samples”.

What about the colony formation ([2]; 7 samples that formed colonies, increasing concentration) of the same compound?
Its colony formation is “all 7 samples had reduced colony formation”.

What about the “colony forming leukemia progenitors” value ([2]; Section 6.3 samples) of the same compound?
The value was “inhibited colony forming leukemia progenitors”.

What about the grafted cells (primary AML graft; AML 90191) of the same compound?
Its grafted cells is “largely not affected”.

And the “CD34+ primitive leukemic cells in RF and BM” value (primary AML graft; AML 110500, 2.5 mg/kg BID)?
Its value is “decreased the most”.

What about the “percentage of CD15 positive cells in RF and BM” value (primary AML graft; AML 110500, 2.5 mg/kg BID) of the same compound?
Its value is “elevated”.

And the “AML grafts in RF and BM” value (primary AML graft; AML 110500, 2.5 mg/kg QD and BID)?
Its value is “significantly decreased”.

What about the AML graft (primary AML graft; AML 110500, 1.25 or 2.5 mg/kg QD or BID IP, 2 weeks, vs vehicle) of the same compound?
Its AML graft is “reduced AML graft of patient sample AML 110500 cells in a dose-dependent manner”.

What about the tolerability ([3]; 4 weeks of treatment, mice with different primary AML samples) of the same compound?
Its tolerability is “well tolerated”.

What about the “Body weight, Week 1, average (mean)” value ([3]; group mean) of the same compound?
Its value is “Avg = 21.8”.

And the “Body weight, Week 2, average (mean)” value ([3]; group mean)?
Its value is “Avg = 21.7”.

What about the “Body weight, Week 3, average (mean)” value ([3]; group mean) of the same compound?
The value was “Avg = 21.6”.

And the “Body weight, Week 1” value ([3]; individual mice)?
Its value is 21 g (5×) and 23 g (2×) and 20 g (2×) and 22 g (4×) and 24 g (2×).

And the “Body weight, Week 2” value ([3]; individual mice)?
The value was 22 g (3×) and 20 g (3×) and 24 g (2×) and 23 g (3×) and 19 g and 21 g (3×).

And the “Body weight, Week 3” value ([3]; individual mice)?
Its value is 23 g and 21 g (4×) and 19 g and 22 g (5×) and 24 g (2×) and 20 g (2×).

And the paralysis / death ([3]; mouse transplanted with Patient Sample 120860, last day of 4-week treatment)?
The paralysis / death was “Only one Compound D-treated mouse was found paralyzed”.
